The target in this assay is T1, serotonin 5-HT6 receptor (Homo sapiens, UniProt P50406).
T1 construct: expressed in transfected cells
The assay is described as follows: Binding experiments on cloned 5-HT6 receptors (procedures of WO 98/27081). An excerpt:
Binding Experiments on Cloned […] Receptors
Compounds can be tested following the procedures outlined in WO 98/27081.

We go through one compound from US20050176759A1, “7-sulfonyl-3-benzazepine derivatives as modulators of the dopamine receptor and their use for the treatment cns disorders” (priority 2001, published 2005).

pKi: −log10 of the molar value.

T1 sequence (P50406 whole entry): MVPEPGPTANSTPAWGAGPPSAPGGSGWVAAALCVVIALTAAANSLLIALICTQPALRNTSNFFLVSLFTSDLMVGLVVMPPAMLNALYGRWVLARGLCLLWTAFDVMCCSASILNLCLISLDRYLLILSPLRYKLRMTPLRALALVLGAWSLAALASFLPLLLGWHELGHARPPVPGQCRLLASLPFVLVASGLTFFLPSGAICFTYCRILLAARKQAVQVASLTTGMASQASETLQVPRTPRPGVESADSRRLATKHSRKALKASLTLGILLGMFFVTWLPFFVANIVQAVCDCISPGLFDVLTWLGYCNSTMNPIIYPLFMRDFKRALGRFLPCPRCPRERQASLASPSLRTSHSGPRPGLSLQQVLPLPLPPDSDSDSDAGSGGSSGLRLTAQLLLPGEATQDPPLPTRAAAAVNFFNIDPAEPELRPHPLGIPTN

Broadly, the pKi is the Ki on a negative log10 scale, so that one unit is a factor of ten. Low values mean a large Ki, high ones a small Ki. In turn, `O=S(=O)(c1ccc2c(c1)CCNCC2)c1c[nH]c2ccccc12` [Example 43, 7-(3-(1H-indolyl)sulfonyl)-2,3,4,5-tetrahydro-1H-3-benzazepine] had a pKi of 9.00 to 10.00.
